Experiment [1] concerns the target T1, Methylated-DNA--protein-cysteine methyltransferase (Homo sapiens) (UniProt P16455).
T1 sequence (whole entry): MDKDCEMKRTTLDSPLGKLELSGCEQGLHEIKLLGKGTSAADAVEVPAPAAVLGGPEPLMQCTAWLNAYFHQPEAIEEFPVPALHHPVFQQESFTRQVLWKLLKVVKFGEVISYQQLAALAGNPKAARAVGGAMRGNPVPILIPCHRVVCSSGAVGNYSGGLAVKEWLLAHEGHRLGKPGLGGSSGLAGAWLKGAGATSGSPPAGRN
The conditions noted are these: HT-29.
Description: AGT-inactivating activity was determined by 50% inactivation in HT-29 cell free extract upon incubation for 30 min

The target in experiment [2] is T1, Methylated-DNA--protein-cysteine methyltransferase (Homo sapiens). The conditions noted are these: HT-29. The source holds these as a separate data set.
Description: AGT-inactivating activity was determined by 50% inactivation in HT-29 cells upon incubation for 4 h

As to `CN(C)c1nc(OCc2ccccc2)c2[nH]cnc2n1`, the ED50 in experiment [1] was 200000 nM; in experiment [2], 110000 nM.

As for `Nc1nc(N)c(Br)c(OCc2ccccc2)n1`, the ED50 in experiment [1] was 2000 nM; in experiment [2] it was 800 nM.

With `CC(=O)Nc1nc(OCc2ccccc2)c2[nH]c(O)nc2n1`, the figures for the ED50 in experiment [1] and in experiment [2] were 65000 nM and 11000 nM, respectively.

Regarding `Nc1ncnc(OCc2ccccc2)c1[N+](=O)[O-]`, the ED50 in experiment [1] stood at 28000 nM; in experiment [2], 8000 nM.

Consider `Nc1nc(N)c(N)c(OCc2ccccc2)n1`, for which the figures for the ED50 in experiment [1] and in experiment [2] were 400 nM and 300 nM, respectively.

Turning to `Oc1nc(OCc2ccccc2)c2[nH]c(O)nc2n1`, the ED50 in experiment [1] stood at 25000 nM; in experiment [2] it was 45000 nM.

Turning to `CNc1nc(OCc2ccccc2)c2[nH]cnc2n1`, the ED50 in experiment [1] was 160000 nM; in experiment [2], 60000 nM.

As to `Oc1nc(OCc2ccccc2)c2[nH]cnc2n1`, the ED50 was 60000 nM in experiment [1] and 35000 nM in experiment [2].

As to `Nc1nc(OCc2ccccc2)c2[nH]c(O)nc2n1`, the ED50 in experiment [1] came out at 300 nM; in experiment [2], 150 nM.

For the molecule `Cc1nc2[nH]c(N)nc(OCc3ccccc3)c-2n1`, the figures for the ED50 in experiment [1] and in experiment [2] were 300 nM and 100 nM, respectively.

In the case of `Nc1ncc([N+](=O)[O-])c(OCc2ccccc2)n1`, the ED50 in experiment [1] was determined as 400 nM; in experiment [2], 50 nM.

Take `Cc1nc(N)nc(OCc2ccccc2)c1[N+](=O)[O-]`: the ED50 in experiment [1] came out at 400 nM; in experiment [2], 60 nM.

For `Fc1nc(OCc2ccccc2)c2[nH]cnc2n1`, the ED50 turned out to be 48000 nM in experiment [1] and 12000 nM in experiment [2].

As to `Nc1nc(OCc2ccccc2)c2[nH]c(Br)nc2n1`, the ED50 is 80 nM in experiment [1] and 60 nM in experiment [2].

Take `Nc1nc(N)c(N=O)c(OCc2ccccc2)n1`: the ED50 in experiment [1] was found to be 60 nM; in experiment [2], 20 nM.

As for `Nc1cc(OCc2ccccc2)nc(N)n1`, the ED50 in experiment [1] is 15000 nM; in experiment [2] it was 5000 nM.

For the molecule `Nc1nc(OCc2ccccc2)c2[nH]c(N)nc2n1`, the ED50 in experiment [1] stood at 700 nM; in experiment [2] it was 2000 nM.

For `Nc1nc(N)nc(OCc2ccccc2)n1`, the ED50 was found to be 4000 nM in experiment [1] and 1000 nM in experiment [2].

For `Nc1nc(OCc2ccccc2)c2[nH]nnc2n1`, the ED50 in experiment [1] was 70 nM; in experiment [2], 60 nM.

For the molecule `Nc1nc(OCc2ccccc2)c2[nH]c(C(F)(F)F)nc2n1`, the ED50 in experiment [1] was 400 nM; in experiment [2], 250 nM.

These data come from ChEMBL document CHEMBL1128442, “8-Substituted O6-benzylguanine, substituted 6(4)-(benzyloxy)pyrimidine, and related derivatives as inactivators of human O6-alkylguanine-DNA alkyltransferase” (J Med Chem, 1995).
